Experimental data published in patent US20230115176A1 (Ra Pharmaceuticals, Inc., priority 2019, published 2023).
Like-named read-outs stand apart in the source and are kept apart here.

What was measured:
Human C5 = biological target: T1, Human C5 (Homo sapiens, UniProt P01031); test: Surface plasmon resonance (SPR), immobilized human C5 (Example 9, Table 18); format: binding
T1 construct: purchased Complement Technology
Description: Morrison and Boyd in “Organic Chemistry”, 6th edition, Prentice Hall (1992)] and validated for proper structure by mass spectrometry.

purified human C5 = purified human C5 (Homo sapiens, UniProt P01031); test: Red blood cell (RBC) hemolysis assay, optical, absorbance 412 nm (Example 10, Table 19); format: cell-based; conditions: antibody-sensitized sheep erythrocytes, […] human C5 depleted sera
Sequence of purified human C5 (P01031 19-1676): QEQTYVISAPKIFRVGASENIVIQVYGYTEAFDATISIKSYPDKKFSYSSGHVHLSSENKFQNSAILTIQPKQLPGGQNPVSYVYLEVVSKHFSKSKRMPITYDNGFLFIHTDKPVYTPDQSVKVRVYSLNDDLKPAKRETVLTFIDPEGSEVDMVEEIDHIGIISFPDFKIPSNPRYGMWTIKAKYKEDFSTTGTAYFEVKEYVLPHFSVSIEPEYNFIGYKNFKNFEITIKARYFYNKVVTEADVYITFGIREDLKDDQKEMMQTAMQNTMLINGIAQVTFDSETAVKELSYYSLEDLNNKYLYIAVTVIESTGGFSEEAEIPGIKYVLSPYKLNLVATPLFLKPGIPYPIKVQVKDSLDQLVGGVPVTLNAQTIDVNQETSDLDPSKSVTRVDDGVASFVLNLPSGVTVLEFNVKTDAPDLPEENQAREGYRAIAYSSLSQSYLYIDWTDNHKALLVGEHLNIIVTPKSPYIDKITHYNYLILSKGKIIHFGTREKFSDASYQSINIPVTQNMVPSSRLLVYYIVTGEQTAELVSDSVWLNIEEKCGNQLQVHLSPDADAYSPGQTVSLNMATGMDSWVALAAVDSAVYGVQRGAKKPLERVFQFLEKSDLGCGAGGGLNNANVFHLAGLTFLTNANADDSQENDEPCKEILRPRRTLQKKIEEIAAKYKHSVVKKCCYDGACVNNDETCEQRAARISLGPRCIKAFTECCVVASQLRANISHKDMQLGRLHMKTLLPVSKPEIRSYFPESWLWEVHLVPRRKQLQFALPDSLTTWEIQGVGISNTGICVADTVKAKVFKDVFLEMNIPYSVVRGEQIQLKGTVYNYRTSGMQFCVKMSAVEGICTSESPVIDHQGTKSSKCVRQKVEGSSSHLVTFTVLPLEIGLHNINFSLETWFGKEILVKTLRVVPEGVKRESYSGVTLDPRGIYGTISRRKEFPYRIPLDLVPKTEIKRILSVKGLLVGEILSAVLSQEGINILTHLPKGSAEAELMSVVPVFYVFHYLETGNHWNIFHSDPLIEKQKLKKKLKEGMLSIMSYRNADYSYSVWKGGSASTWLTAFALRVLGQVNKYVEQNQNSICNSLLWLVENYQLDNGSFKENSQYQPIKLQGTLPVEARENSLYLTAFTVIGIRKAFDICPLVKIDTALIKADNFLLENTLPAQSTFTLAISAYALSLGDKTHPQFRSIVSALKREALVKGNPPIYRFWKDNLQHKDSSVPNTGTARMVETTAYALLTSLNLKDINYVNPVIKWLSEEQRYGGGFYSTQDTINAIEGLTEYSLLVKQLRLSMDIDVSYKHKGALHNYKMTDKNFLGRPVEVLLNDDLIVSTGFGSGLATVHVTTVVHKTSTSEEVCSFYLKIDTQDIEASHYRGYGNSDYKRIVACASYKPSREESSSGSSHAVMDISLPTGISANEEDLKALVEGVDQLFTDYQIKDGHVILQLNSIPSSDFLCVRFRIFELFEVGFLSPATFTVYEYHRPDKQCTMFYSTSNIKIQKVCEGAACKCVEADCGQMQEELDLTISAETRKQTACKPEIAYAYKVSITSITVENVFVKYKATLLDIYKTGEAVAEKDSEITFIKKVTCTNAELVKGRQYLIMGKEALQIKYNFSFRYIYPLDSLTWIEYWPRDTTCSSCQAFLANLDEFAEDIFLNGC

[1] = immobilized human C5, equilibrium dissociation constant, read-out: SPR C5 EQ KD
[2] = 0.5 nM purified human C5, absorbance 412 nm, read-out: RBC Hemolysis IC50
[3] = 0.5 nM human C5, read-out: IC50
[4] = SPR, human C5 immobilized, read-out: equilibrium dissociation constant for interaction with C5

T1 sequence (P01031 19-1676): as above

Compound	Kd (Human C5; [1]) [nM]	IC50 (purified human C5; [2]) [nM]	IC50 (purified human C5; [3]) [nM]	Kd (Human C5; [4]) [nM]
COc1ccc(NC(=O)NC(CO)c2ccccc2)cc1COCCC(C)C (stereo not drawn) [Compound C5INH-0477]	1130	1460		
COc1ccc(NC(=O)N[C@@H](CO)c2ccccc2)cc1NCCCC(C)C [Compound C5INH-0336]	164	473		
COc1ccc(NC(=O)NCc2ccc(N3CCN(C)CC3)cc2)cc1OCCCC(C)C [Compound C5INH-0420]	800	403		
COc1ccc(NC(=O)NC(CO)c2cc(N)ccc2OC)cc1OCCCC(C)C (stereo not drawn) [Compound C5INH-0488]	100	12	< 20	
COc1ccc(NC(=O)NCc2ccnc(NCCN(C)C)c2OC)cc1OCCCC(C)C [Compound C5INH-0453]	25	65.5		
COc1ccc(NC(=O)NCc2cccc3c2ccn3CC2CCCN2C)cc1OCCCC(C)C (stereo not drawn) [Compound C5INH-0519]	9.3	96.7		< 20
COc1ccc(NC(=O)NCc2cccc(N3CCN(C)CC3)c2)cc1OCCCC(C)C [Compound C5INH-0369]	104	592		
COc1ccc(NC(=O)NCc2ccc(CN3CCOCC3)cc2)cc1OCCCC(C)C [Compound C5INH-0421]	1660	4590		
CNc1cccc(CNC(=O)Nc2ccc(OC)c(OCCCC(C)C)c2)c1 [Compound C5INH-0497]	1400	913		
COc1ccc(NC(=O)NCc2cccc(NC(C)=O)c2)cc1OCCCC(C)C [Compound C5INH-0496]	600	400		
COCCOc1ccccc1CNC(=O)Nc1ccc(OC)c(OCCCC(C)C)c1 [Compound C5INH-0335]	180	2090		
COc1cc(CC(N)=O)c(NC(=O)N[C@@H](CO)c2ccccc2)cc1OCCCC(C)C [Compound C5INH-0422]	1340	1370		
COc1ccc(NC(=O)NCc2ccnc(N)c2)cc1OCCCC(C)C [Compound C5INH-0333]	98	442		
COc1ccc(C2CCCN2C(=O)Nc2ccc(OC)c(OCCCC(C)C)c2)cc1 (stereo not drawn) [Compound C5INH-0387]	320	577		
COc1ccc(NC(=O)NCc2ccc(Cn3ccnc3)cc2)cc1OCCCC(C)C [Compound C5INH-0460]	578	725		
COc1ccc(NC(=O)NCc2cccc(CN3CCCC3=O)c2)cc1OCCCC(C)C [Compound C5INH-0323]	731	1920		
COC(=O)CCn1ccc2c(CNC(=O)Nc3ccc(OC)c(OCCCC(C)C)c3)ccnc21 [Compound C5INH-0398]	89	329		
COc1ccc(NC(=O)NCc2cccc(C(=N)N)c2)cc1OCCCC(C)C [Compound C5INH-0303]	710	2940		
COc1ccc(NC(=O)NCc2ccc(N(C)CC(N)=O)cc2)cc1OCCCC(C)C [Compound C5INH-0446]	184	2710		
COc1ccc(NC(=O)NC(CO)c2cccc(CNCCN3CCOCC3)c2)cc1OCCCC(C)C (stereo not drawn) [Compound C5INH-0379]	499	3630		
COc1ccc(NC(=O)N[C@@H](CO)c2ccccc2)cc1C(O)CCCC(C)C (stereo partly drawn) [Compound C5INH-0367]	102	475		
COc1ccc(NC(=O)NCc2cccc3c2ncn3S(=O)(=O)c2ncc[nH]2)cc1OCCCC(C)C [Compound C5INH-0500]	334	556		
COc1ccc(NC(=O)NCc2cccc(CO)c2)cc1OCCCC(C)C [Compound C5INH-0342]	180	1540		
COc1ccc(NC(=O)N(CCN2CCOCC2)Cc2cccc3c2ccn3CCN2CCOCC2)cc1OCCCC(C)C [Compound C5INH-0438]	2780	3000		
COc1ccc(NC(=O)NC(CO)c2cccc(CNC(=O)OC(C)(C)C)c2)cc1OCCCC(C)C (stereo not drawn) [Compound C5INH-0372]	670	3270		
COc1ccc(NC(=O)NCc2cccc(OC)c2O)cc1OCCCC(C)C [Compound C5INH-0456]	29		7	
COc1ccc(NC(=O)NCc2ccc3c(N)n[nH]c3c2)cc1OCCCC(C)C [Compound C5INH-0458]	225	416		

Compound	Kd (Human C5; [1]) [nM]	IC50 (purified human C5; [2]) [nM]	IC50 (purified human C5; [3]) [nM]	Kd (Human C5; [4]) [nM]
COc1ccc(NC(=O)NCc2cccc3nc[nH]c23)cc1OCCCC(C)C [Compound C5INH-0317]	190	319		
COc1ccc(NCCCN2CCOCC2)cc1CNC(=O)Nc1ccc(OC)c(OCCCC(C)C)c1 [Compound C5INH-0534]	260	1110		
COc1ccc(NC(=O)NCc2ccnc3c2ccn3CC2=NCCCN2)cc1OCCCC(C)C [Compound C5INH-0474]	201	120		
COc1ccc(NC(=O)NCc2ccnc3c2ccn3CCCN2CCCC2)cc1OCCCC(C)C [Compound C5INH-0490]	278	144		
COc1ccc(NC(=O)NCc2ccnc(N3CCCC(O)C3)c2)cc1OCCCC(C)C (stereo not drawn) [Compound C5INH-0403]	220	2990		
COc1ccc(NC(=O)NCc2ccnc3c2ccn3CCN2CCCC2)cc1OCCCC(C)C [Compound C5INH-0377]	47	156		
COc1cnccc1CNC(=O)Nc1ccc(OC)c(OCCCC(C)C)c1 [Compound C5INH-0401]	48	136		
COc1ccc(C(CO)NC(=O)Nc2ccc(OC)c(OCCCC(C)C)c2)cc1OC (stereo not drawn) [Compound C5INH-0352]	700	2950		
COc1ccc(NC(=O)N[C@H](CO)c2ccccc2)cc1C(F)C(F)CCC(C)C (stereo partly drawn) [Compound C5INH-0406]	760	683		
COc1ccc(NC(=O)NCc2ccnc(NCCN(C)C)c2)cc1OCCCC(C)C [Compound C5INH-0389]	420	1310		
COc1ccc(NC(=O)NCc2cccc3c2ccn3CCN2CCOCC2)cc1OCCCC(C)C [Compound C5INH-0437]	37	81.5		
COCCNc1cc(CNC(=O)Nc2ccc(OC)c(OCCCC(C)C)c2)ccn1 [Compound C5INH-0390]	257	698		
COc1ccc(NC(=O)NCc2cccc3c2ccn3CCCN(C)C)cc1OCCCC(C)C [Compound C5INH-0524]	27	65		
COc1ccc(NC(=O)NCc2ccnc3c2ccn3C)cc1OCCCC(C)C [Compound C5INH-0361]	52	2350		
COc1ccc(NC(=O)NCc2ccc(OCCN(C)C)cc2)cc1OCCCC(C)C [Compound C5INH-0318]	313	251		
CCOc1ccccc1CNC(=O)Nc1ccc(OC)c(OCCCC(C)C)c1 [Compound C5INH-0339]	52	878		
COc1ccc(NC(=O)NCc2ccc3c(c2)OCCO3)cc1OCCCC(C)C [Compound C5INH-0340]	75	992		
COc1ccc(NC(=O)NCc2cccc3c2ccn3Cc2ccncc2)cc1OCCCC(C)C [Compound C5INH-0518]	14	300		< 20
COc1ccc(NC(=O)NC(CO)c2cccc3[nH]ccc23)cc1OCCCC(C)C (stereo not drawn) [Compound C5INH-0356]	59	111		
COc1cc(CNC(C)=O)c(NC(=O)NCc2ccnc3[nH]ccc23)cc1OCCCC(C)C [Compound C5INH-0504]	316	318		
COc1ccc(NC(=O)NCc2cccc(O)c2O)cc1OCCCC(C)C [Compound C5INH-0476]	40	8.5	< 20	
COc1cc(F)ccc1CNC(=O)Nc1ccc(OC)c(OCCCC(C)C)c1 [Compound C5INH-0298]	550	269		
COc1ccc(NC(=O)NCc2cccc(OCCN(C)C)c2)cc1OCCCC(C)C [Compound C5INH-0462]	95	113		
COc1ccc(NCCCN(C)C)cc1CNC(=O)Nc1ccc(OC)c(OCCCC(C)C)c1 [Compound C5INH-0535]	260	1040		
COc1ccc(NC(=O)N(C)Cc2cccc3ccn(C)c23)cc1OCCCC(C)C [Compound C5INH-0492]	2070	2650		
COc1ccc(NC(=O)NCc2cc(F)cc3[nH]ccc23)cc1OCCCC(C)C [Compound C5INH-0517]	10.7	369		< 20
